Source: the CATMoS acute toxicity set (Mansouri et al. 2021)
“And” between values parts separate entries of the source, which are not always exact repeats. Identical values can stand only once.

Test: rat acute oral toxicity
Conditions: in vivo
Description: […]The data set underlying the modeling effort for this project was initially compiled by NICEATM and U.S. EPA’s CCTE. Briefly, LD50 data were collected from rat acute oral systemic toxicity tests, including limit tests, ranges/confidence intervals, and discrete LD50 values. The full data set included 21,200 LD50 entries for 15,688 substances. […] Data were reviewed to ensure that LD50 values with obvious errors in the extracted data such as unit conversion errors (e.g., comma and decimal separator misplacements) were either fixed or removed. After this review, 16,209 LD50 values remained. Many of the chemicals represented had multiple LD50 entries, requiring that a single representative value per Chemical Abstracts Service Registry Number (CASRN) identifier be defined to facilitate modeling efforts. Based on ATWG feedback and to define the representative LD50 as a protective value while accounting for the distribution across multiple LD50s, the median of the lowest quartile was computed using only discrete LD50 values (omitting limit test data and range and confidence interval data). A detailed summary of the data compilation is available online on the NICEATM webpage dedicated to the collaborative modeling project (NTP 2020).
[…][…] For categorical designations, limit test and range/confidence interval LD50 data were integrated wherever possible. As such, the number of chemicals with end point values/calls varies across the modeling end points (Table 3) based on whether chemicals had representative LD50 values and/or other data. If a chemical had both, the representative value was used to determine categorical calls rather than limit test data. Some data were useable only for certain end points and categories depending on the thresholds. For example, ranges that spanned multiple hazard categories were considered only for the binary (very toxic/nontoxic) end points and omitted from rendering a determination for hazard category assignment.
[…]The final data set comprising 11,992 chemicals was split into training and evaluation sets […], respectively. This process was performed semirandomly by ordering chemicals based on the five end points (categorical and continuous LD50 values) and partitioning every fourth record into the evaluation set accordingly. This approach was taken to ensure an equivalent distribution of the LD50 values and the different hazard categories between the training and the evaluation sets without supervised sampling of the chemicals based on structures (Figure 1A). The sources of the chemical structures were also kept equivalent between the two sets, with chemical structures obtained from DSSTox, being the highest quality, representing over 75% of each set (Figure 1B).

SMILES | LD50
O=Cc1ccncc1 | 2170 mg/kg
CC1=C(C)S(=O)(=O)CCS1(=O)=O | 500 mg/kg
Cc1ccc(N)cc1N | 73 mg/kg
CCNCC | 540 mg/kg
S=c1[nH]c(=S)[nH]c(=S)[nH]1 | 1180 mg/kg
N#Cc1ccccc1 | 700 mg/kg
Cc1ccccc1OP(=O)(Oc1ccccc1C)Oc1ccccc1C | 1160 mg/kg
O=C(OC1CCCCC1)c1ccccc1O | 3030 mg/kg
CC(C)(C)C(O)C(Oc1ccc(Cl)cc1)n1cncn1 (stereo not given) | 689 mg/kg
COCCO | 2260 mg/kg
OCC(CO)(CBr)CBr | 1880 mg/kg
CC(C)CC(=O)CC(C)C | 5260 mg/kg
CN(C)CCCNCCCN | 1540 mg/kg
CCCCOC(=O)c1ccccc1C(=O)OCCCC | 6300 mg/kg
Oc1ccccc1-c1ccccc1 | 718 mg/kg
CCC(C)(C#N)/N=N/C(C)(C#N)CC (stereo not given) | 333 mg/kg
CC1(C)[C@H](C(=O)O[C@@H](C#N)c2cccc(Oc3ccccc3)c2)[C@@H]1C=C(Cl)Cl (single isomer, unassigned) | 57 mg/kg
CC(C)CCCCCCCO | 6400 mg/kg
CCCCC(Oc1ccc([N+](=O)[O-])cc1C=O)C(=O)O (stereo not given) | 500 mg/kg
CCCN(CC1CC1)c1c([N+](=O)[O-])cc(C(F)(F)F)cc1[N+](=O)[O-] | 1810 mg/kg
CCCC(C)c1cccc(OC(=O)NC)c1 (stereo not given) | 50 mg/kg
CCCOCC(C)O (stereo not given) | 2490 mg/kg
CN(Cc1cnc2nc(N)nc(N)c2n1)c1ccc(C(=O)N[C@@H](CCC(=O)O)C(=O)O)cc1 | 135 mg/kg
CC(C)(C)CC(C)(C)c1ccc(OCCO)cc1 | 1800 mg/kg
C[N+](C)(C)CCCl | 600 mg/kg

SMILES | LD50
N#C/N=C1\SCCN1Cc1ccc(Cl)nc1 | 285 mg/kg
CCSC(=O)N(CC)C1CCCCC1 | 1680 mg/kg
O=C1CCN(c2ccccc2)N1 | 200 mg/kg
OC[C@@H](O)[C@H](O)[C@@H](O)CO | 14100 mg/kg
CC1(C)COCN1 | 950 mg/kg
Cc1ccc(O)cc1 | 207 mg/kg
O=C1NS(=O)(=O)c2ccccc21 | 8820 mg/kg
CCCCSP(=O)(SCCCC)SCCCC | 150 mg/kg
Clc1ccccc1 | 1110 mg/kg
O=C(O)c1cc(Oc2ccc(C(F)(F)F)cc2Cl)ccc1[N+](=O)[O-] | 1300 mg/kg
CCCNCCC | 300 mg/kg
C/C=C\CC1=C(C)[C@@H](OC(=O)[C@@H]2[C@@H](C=C(C)C)C2(C)C)CC1=O | 1030 mg/kg
COP(=S)(OC)Oc1cc(Cl)c(Br)cc1Cl | 1600 mg/kg
CCCCCCCCC=CCCCCCCCCOCCO | 2700 mg/kg
CSc1nnc(C(C)(C)C)c(=O)n1N | 322 mg/kg
CC(C)[C@H](C(=O)OC(C#N)c1cccc(Oc2ccccc2)c1)c1ccc(OC(F)F)cc1 (stereo not given in full) | 67 mg/kg
C/C(=N\C#N)N(C)Cc1ccc(Cl)nc1 | 146 mg/kg
CC1(C)C(C=C(Br)Br)C1C(=O)OC(C#N)c1cccc(Oc2ccccc2)c1 (stereo not given) | 40.5 mg/kg
ClC1C(Cl)C(Cl)C(Cl)C(Cl)C1Cl (stereo not given) | 88 mg/kg and 100 mg/kg
CC(=O)CC(=O)Nc1ccccc1C | 1020 mg/kg
CC(=O)C=C(C)C | 300 mg/kg
CC1=C(C(=O)Nc2ccccc2)S(=O)(=O)CCO1 | 1630 mg/kg
CNC(=O)ON=C1C(Cl)C2CC(C#N)C1C2 (stereo not given) | 19 mg/kg
Clc1ccc(C(Cl)(Cl)Cl)cc1Cl | 1420 mg/kg
CCCCCCCCCCCCCCCCCC[N+](C)(C)C | 702 mg/kg

SMILES | LD50
COP(=S)(OC)SCC(=O)N(C)C=O | 218 mg/kg
O=[N+]([O-])c1ccc(Cl)cc1Cl | 379 mg/kg
C1=CCCC=CCCC=CCC1 | 1780 mg/kg
Sc1ccccc1 | 46 mg/kg
COC(=O)C(N)Cc1cnc[nH]1 (stereo not given) | 1370 mg/kg
O=C(Cl)c1ccc(Cl)cc1 | 3150 mg/kg
C1CCC2CCCCC2C1 (stereo not given) | 4170 mg/kg
CNC(=O)ON=C(SC)C(=O)N(C)C | 2.5 mg/kg
Cc1cc(O)ccc1Cl | 1830 mg/kg
ClC=C(Cl)Cl | 4920 mg/kg
CNC(=O)ON=C(C)SC | 14.7 mg/kg
Clc1cccc(Cl)c1Cl | 756 mg/kg
CCCOCCO | 3090 mg/kg
COP(=O)(OC)O/C(C)=C/C(=O)N(C)C | 9 mg/kg
CNCCO | 1390 mg/kg
CCOC(=O)CC(=O)C(F)(F)F | 765 mg/kg
O=C(O)c1ccc(C(=O)O)cc1 | 1960 mg/kg
Cn1cnc2c1c(=O)[nH]c(=O)n2C | 950 mg/kg
N#CCC(=O)O | 1010 mg/kg
CCCC(=NOCC)C1=C(O)CC(CC(C)SCC)CC1=O (stereo not given) | 2680 mg/kg
CCCCOCN(C(=O)CCl)c1c(CC)cccc1CC | 1740 mg/kg
NCCCCCCN | 750 mg/kg
CCOP(=S)(NC(C)C)Oc1ccccc1C(=O)OC(C)C (stereo not given) | 21.1 mg/kg
S=c1sc2nc3ccccc3nc2s1 | 1800 mg/kg
N#C[N-2] | 158 mg/kg
